Laboratory results taken from patent US20100160454A1, “ANTIMICROBIAL AGENTS, COMPOSITIONS AND PRODUCTS CONTAINING THE SAME, AND METHODS OF USING THE COMPOSITIONS AND PRODUCTS” (Eastman Chemical Company, priority 2008, published 2010).

How the values were obtained:
Test in all cases: Microbiological challenge testing in BPW broth, graded subculture counts
Format in all cases: cell-based
[1] = test system: Proteus vulgaris Wild type
Outline: (§1)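 Strains grown in TSB with 1% dextrose at 35 °C for ≥96 h. Inoculum added to BPW broth with 1% dextrose, with or without test material (w/v), to 10^5–10^6 CFU/mL at time zero. Counts by spread-plating serial 1:10 dilutions in pH 7.2 phosphate buffer on PCA, incubated at 35 °C for ≥48 h.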

[2] = test system: Escherichia coli ATCC 25922; details: E. Coli
Outline: as §1

[3] = test system: Staphylococcus aureus ATCC 25923; details: S. aureus
Outline: as §1

[4] = test system: Streptococcus mutans ATCC 35668
Outline: as §1

CC(O)CO (stereo not drawn) [PG, propylene glycol]
P. vulgaris growth grade, 3 day ([1]; 0.5% weight/volume): 4 (1000 to 10,000 colonies countable (thus 10,000 CFU/mL to 100,000 CFU/mL))
P. vulgaris growth grade, 13 day ([1]; 0.5% weight/volume): 4 (1000 to 10,000 colonies countable (thus 10,000 CFU/mL to 100,000 CFU/mL))
P. vulgaris growth grade, 30 day ([1]; 0.5% weight/volume): 4 (1000 to 10,000 colonies countable (thus 10,000 CFU/mL to 100,000 CFU/mL))
P. vulgaris growth grade, 3 day ([1]; 1.25% weight/volume): 4 (1000 to 10,000 colonies countable (thus 10,000 CFU/mL to 100,000 CFU/mL))
P. vulgaris growth grade, 13 day ([1]; 1.25% weight/volume): 4 (1000 to 10,000 colonies countable (thus 10,000 CFU/mL to 100,000 CFU/mL))
P. vulgaris growth grade, 30 day ([1]; 1.25% weight/volume): 4 (1000 to 10,000 colonies countable (thus 10,000 CFU/mL to 100,000 CFU/mL))
P. vulgaris growth grade, 3 day ([1]; 2.5% weight/volume): 4 (1000 to 10,000 colonies countable (thus 10,000 CFU/mL to 100,000 CFU/mL))
P. vulgaris growth grade, 13 day ([1]; 2.5% weight/volume): 4 (1000 to 10,000 colonies countable (thus 10,000 CFU/mL to 100,000 CFU/mL))
P. vulgaris growth grade, 30 day ([1]; 2.5% weight/volume): 4 (1000 to 10,000 colonies countable (thus 10,000 CFU/mL to 100,000 CFU/mL))
P. vulgaris growth grade, 3 day ([1]; 5.0% weight/volume): 4 (1000 to 10,000 colonies countable (thus 10,000 CFU/mL to 100,000 CFU/mL))
P. vulgaris growth grade, 13 day ([1]; 5.0% weight/volume): 4 (1000 to 10,000 colonies countable (thus 10,000 CFU/mL to 100,000 CFU/mL))
P. vulgaris growth grade, 30 day ([1]; 5.0% weight/volume): 4 (1000 to 10,000 colonies countable (thus 10,000 CFU/mL to 100,000 CFU/mL))
Grade ([2]; 0.5% (wt/vol), 3 day): 5 (More than 10,000 colonies estimated (thus more than 100,000 CFU/mL))
Grade ([2]; 0.5% (wt/vol), 14 day): 5 (More than 10,000 colonies estimated (thus more than 100,000 CFU/mL))
Grade ([2]; 0.5% (wt/vol), 30 day): 5 (More than 10,000 colonies estimated (thus more than 100,000 CFU/mL))
Grade ([2]; 1.25% (wt/vol), 3 day): 5 (More than 10,000 colonies estimated (thus more than 100,000 CFU/mL))
Grade ([2]; 1.25% (wt/vol), 14 day): 4 (1000 to 10,000 colonies countable (thus 10,000 CFU/mL to 100,000 CFU/mL))
Grade ([2]; 1.25% (wt/vol), 30 day): 4 (1000 to 10,000 colonies countable (thus 10,000 CFU/mL to 100,000 CFU/mL))
Grade ([2]; 2.5% (wt/vol), 3 day): 5 (More than 10,000 colonies estimated (thus more than 100,000 CFU/mL))
Grade ([2]; 2.5% (wt/vol), 14 day): 4 (1000 to 10,000 colonies countable (thus 10,000 CFU/mL to 100,000 CFU/mL))
Grade ([2]; 2.5% (wt/vol), 30 day): 4 (1000 to 10,000 colonies countable (thus 10,000 CFU/mL to 100,000 CFU/mL))
Grade ([2]; 5.0% (wt/vol), 3 day): 4 (1000 to 10,000 colonies countable (thus 10,000 CFU/mL to 100,000 CFU/mL))
Grade ([2]; 5.0% (wt/vol), 14 day): 4 (1000 to 10,000 colonies countable (thus 10,000 CFU/mL to 100,000 CFU/mL))
Grade ([2]; 5.0% (wt/vol), 30 day): 4 (1000 to 10,000 colonies countable (thus 10,000 CFU/mL to 100,000 CFU/mL))
Grade ([3]; 0.5% (wt/vol), 3 day): 5 (More than 10,000 colonies estimated (thus more than 100,000 CFU/mL))
Grade ([3]; 0.5% (wt/vol), 14 day): 4 (1000 to 10,000 colonies countable (thus 10,000 CFU/mL to 100,000 CFU/mL))
Grade ([3]; 0.5% (wt/vol), 30 day): 4 (1000 to 10,000 colonies countable (thus 10,000 CFU/mL to 100,000 CFU/mL))
Grade ([3]; 1.25% (wt/vol), 3 day): 4 (1000 to 10,000 colonies countable (thus 10,000 CFU/mL to 100,000 CFU/mL))
Grade ([3]; 1.25% (wt/vol), 14 day): 4 (1000 to 10,000 colonies countable (thus 10,000 CFU/mL to 100,000 CFU/mL))
Grade ([3]; 1.25% (wt/vol), 30 day): 4 (1000 to 10,000 colonies countable (thus 10,000 CFU/mL to 100,000 CFU/mL))
Grade ([3]; 2.5% (wt/vol), 3 day): 4 (1000 to 10,000 colonies countable (thus 10,000 CFU/mL to 100,000 CFU/mL))
Grade ([3]; 2.5% (wt/vol), 14 day): 4 (1000 to 10,000 colonies countable (thus 10,000 CFU/mL to 100,000 CFU/mL))
Grade ([3]; 2.5% (wt/vol), 30 day): 4 (1000 to 10,000 colonies countable (thus 10,000 CFU/mL to 100,000 CFU/mL))
Grade ([3]; 5.0% (wt/vol), 3 day): 4 (1000 to 10,000 colonies countable (thus 10,000 CFU/mL to 100,000 CFU/mL))
Grade ([3]; 5.0% (wt/vol), 14 day): 4 (1000 to 10,000 colonies countable (thus 10,000 CFU/mL to 100,000 CFU/mL))
Grade ([3]; 5.0% (wt/vol), 30 day): 4 (1000 to 10,000 colonies countable (thus 10,000 CFU/mL to 100,000 CFU/mL))
S. mutans growth grade, 3 day ([4]; 0.5% weight/volume): 5 (More than 10,000 colonies estimated (thus more than 100,000 CFU/mL))
S. mutans growth grade, 13 day ([4]; 0.5% weight/volume): 5 (More than 10,000 colonies estimated (thus more than 100,000 CFU/mL))
S. mutans growth grade, 30 day ([4]; 0.5% weight/volume): 5 (More than 10,000 colonies estimated (thus more than 100,000 CFU/mL))
S. mutans growth grade, 3 day ([4]; 1.25% weight/volume): 4 (1000 to 10,000 colonies countable (thus 10,000 CFU/mL to 100,000 CFU/mL))
S. mutans growth grade, 13 day ([4]; 1.25% weight/volume): 4 (1000 to 10,000 colonies countable (thus 10,000 CFU/mL to 100,000 CFU/mL))
S. mutans growth grade, 30 day ([4]; 1.25% weight/volume): 4 (1000 to 10,000 colonies countable (thus 10,000 CFU/mL to 100,000 CFU/mL))
